Among the test systems are UACC-257; OVCAR-4; A498; MDA-MB-231; RXF 393; T47D; SF-268; SF-295; HOP-62; MDA-MB-435; U-251; MDA-N; SN12C; HOP-92; SNB-75; ACHN; NCI-H23; UO-31; SR; HL-60.
Holding throughout (test): NCI tumour cell line growth inhibition, 48 h

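Briefly, cells in 96-well plates were exposed to five compound concentrations for 48 h, and endpoints were estimated by linear interpolation. Abbreviation: GI50, concentration required for 50% inhibition of growth.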 Active and inactive are the calls of the source. No stated cut-off is given here; in the data, active = GI50 up to about 1.1 µM and inactive = higher.

The values that follow come from ChEMBL document CHEMBL1201862, “PubChem BioAssay data set” (2004).

`C#CCn1ncc2c(SCc3ccccc3)ncnc21`: the GI50 in the test with UACC-257 was 70 µM (inactive); in the test on OVCAR-4 it was > 100 µM (inactive); in the test on A498, > 100 µM (inactive); in the test with MDA-MB-231, > 100 µM (inactive); in the test with RXF 393, > 100 µM (inactive); in the test on T47D, 3.05 µM (inactive). Besides, the GI50 was > 100 µM (inactive) with SF-268; 53.5 µM (inactive) in the test on SF-295; > 100 µM (inactive) in the test with HOP-62; 99.5 µM (inactive) with MDA-MB-435; > 100 µM (inactive) with U-251; > 100 µM (inactive) in the test with MDA-N. Moreover, the GI50 was > 100 µM (inactive) in the test on SN12C; > 100 µM (inactive) in the test on HOP-92; 40.8 µM (inactive) in the test on SNB-75; > 100 µM (inactive) in the test with ACHN; > 100 µM (inactive) in the test on NCI-H23; 89.7 µM (inactive) in the test on UO-31. Besides, in the test on SR, the GI50 is 18.8 µM (inactive).

As for `O=c1[nH]c(N/N=C\C(=N/Nc2nc3ccccc3c(=O)[nH]2)C(O)C(O)C(O)CO)nc2ccccc12` (stereo not given), the GI50 with HL-60, with UACC-257, in the test on A498, in the test on MDA-MB-231, with T47D and in the test on SF-268 was > 100 µM (inactive) throughout. The GI50 in the test with SF-295, with HOP-62, in the test with MDA-MB-435, in the test on U-251, in the test on MDA-N and in the test on SN12C was > 100 µM (inactive) throughout. For the same molecule, the GI50 with HOP-92, in the test on SNB-75, in the test with ACHN, in the test with NCI-H23, in the test on UO-31 and in the test on SR was > 100 µM (inactive) in each case.

Turning to `C1CCC(OC2CSC2)OC1` (stereo not given), the GI50 with UACC-257, in the test with OVCAR-4, with A498, with MDA-MB-231, in the test on RXF 393 and in the test on T47D was > 100 µM (inactive) throughout. The GI50 in the test on SF-268, with SF-295, in the test on MDA-MB-435, in the test with U-251, in the test on MDA-N and in the test on SN12C was > 100 µM (inactive) throughout. Besides, the GI50 in the test on HOP-92, in the test with SNB-75, with ACHN, in the test with NCI-H23, in the test on UO-31 and in the test on SR was > 100 µM (inactive) in each case.

With `COc1ccc2nc(-c3ccc(OC(=O)N(C)C)cc3)cn2c1`, the GI50 is > 100 µM (inactive) in the test with HL-60; > 100 µM (inactive) in the test with UACC-257; > 100 µM (inactive) with OVCAR-4; > 100 µM (inactive) with A498; > 100 µM (inactive) with MDA-MB-231; 71.4 µM (inactive) in the test with T47D. In addition, the GI50 with SF-268 is > 100 µM (inactive); in the test on SF-295, 85.5 µM (inactive); in the test with HOP-62 it was > 100 µM (inactive); in the test on MDA-MB-435, > 100 µM (inactive); with U-251, > 100 µM (inactive); in the test with MDA-N, > 100 µM (inactive). The GI50 was > 100 µM (inactive) in the test with SN12C; > 100 µM (inactive) with HOP-92; > 100 µM (inactive) in the test with SNB-75; > 100 µM (inactive) in the test on ACHN; > 100 µM (inactive) with NCI-H23; 38.9 µM (inactive) in the test with SR.

In the case of `C#CC(C)(C)Oc1cc(OC)c2c(=O)c3ccccc3n(C)c2c1`, the GI50 in the test on HL-60 is 10.9 µM (inactive); with UACC-257, 10.9 µM (inactive); with OVCAR-4 it was 7.8 µM (inactive); in the test with MDA-MB-231 it was 15.2 µM (inactive); with RXF 393 it was 25.2 µM (inactive); with T47D, 2.84 µM (inactive). For the same molecule, the GI50 in the test with SF-268 was 11.6 µM (inactive); with SF-295 it was 19.5 µM (inactive); in the test on HOP-62, 27 µM (inactive); with MDA-MB-435, 11 µM (inactive); in the test with U-251 it was 30.3 µM (inactive); in the test with MDA-N, 12.6 µM (inactive). Besides, the GI50 in the test with SN12C was 10 µM (inactive); in the test on SNB-75 it was 24.8 µM (inactive); with ACHN, 12.7 µM (inactive); in the test on UO-31, 3.87 µM (inactive); in the test with SR, 2.83 µM (inactive).

Regarding `NNC(=O)C(O)C(O)C(=O)NN` (stereo not given), the GI50 in the test with UACC-257, in the test with OVCAR-4, in the test with A498, in the test with MDA-MB-231, in the test on RXF 393 and in the test on T47D was > 100 µM (inactive) throughout. Moreover, the GI50 in the test with SF-268, in the test on SF-295, in the test on HOP-62, in the test on MDA-MB-435, with U-251 and in the test with MDA-N was > 100 µM (inactive) each time. Also, the GI50 is > 100 µM (inactive) in the test on SN12C; > 100 µM (inactive) with SNB-75; > 100 µM (inactive) in the test on ACHN; > 100 µM (inactive) in the test on NCI-H23; > 100 µM (inactive) with UO-31; 57.5 µM (inactive) with SR.

As for `Cc1cccc(NC(=O)/C=C/c2ccc([N+](=O)[O-])cc2)c1`, the GI50 in the test with UACC-257 was > 39 µM (inactive); with OVCAR-4, > 41.4 µM (inactive); with A498, > 100 µM (inactive); in the test on MDA-MB-231, 22.4 µM (inactive); in the test with RXF 393 it was 34 µM (inactive); in the test with T47D, > 37.8 µM (inactive). Further, the GI50 with SF-268 was 38.3 µM (inactive); in the test with SF-295, 29 µM (inactive); in the test with HOP-62, 16.7 µM (inactive); with MDA-MB-435 it was > 36.6 µM (inactive); with U-251 it was > 38 µM (inactive); with MDA-N, > 30.7 µM (inactive). Besides, the GI50 in the test with SN12C is > 41.2 µM (inactive); in the test on HOP-92, 15.8 µM (inactive); in the test with SNB-75, 30.1 µM (inactive); in the test with ACHN, 14.9 µM (inactive); in the test with NCI-H23 it was 16.4 µM (inactive); in the test on UO-31 it was > 35.5 µM (inactive). In addition, the GI50 with SR was 11.7 µM (inactive).

Take `CC(=O)O[C@@H]1C[C@@]2(C)[C@@H]3CC=C4[C@@H](C[C@H](O)C(=O)C4(C)C)[C@]3(C)C(=O)C[C@]2(C)[C@H]1[C@@](C)(O)C(=O)/C=C/C(C)(C)OC(C)=O`: the GI50 is 0.746 µM (active) in the test on HL-60; 0.594 µM (active) in the test with UACC-257; 0.789 µM (active) in the test on OVCAR-4; 0.0151 µM (active) in the test with A498; 2.78 µM (inactive) with MDA-MB-231; 10.1 µM (inactive) in the test with T47D. In addition, the GI50 was 1.01 µM (active) in the test with SF-268; 1.2 µM (inactive) in the test on SF-295; 0.731 µM (active) with HOP-62; 1.01 µM (active) in the test on MDA-MB-435; 0.617 µM (active) with U-251; 1.37 µM (inactive) with MDA-N. Besides, the GI50 is 0.957 µM (active) in the test with SN12C; 0.912 µM (active) in the test with HOP-92; 1.85 µM (inactive) in the test with SNB-75; 0.16 µM (active) in the test on ACHN; 5.26 µM (inactive) with NCI-H23; 0.298 µM (active) in the test with UO-31. Also, the GI50 in the test with SR is 3.33 µM (inactive).

As for `Oc1ccc2c(c1)-c1c(c3ccccc3n1CCN1CCOCC1)CC2`, the GI50 with HL-60 was > 100 µM (inactive); with UACC-257, 27.9 µM (inactive); in the test on A498 it was > 100 µM (inactive); in the test with MDA-MB-231 it was > 100 µM (inactive); in the test with RXF 393, 66.7 µM (inactive); in the test with T47D it was 84.7 µM (inactive). The GI50 in the test with SF-268 is 59.4 µM (inactive); with SF-295 it was 48.3 µM (inactive); in the test with HOP-62, 47 µM (inactive); in the test on MDA-MB-435, 30.9 µM (inactive); in the test on U-251, 42.3 µM (inactive); in the test with MDA-N, 33.7 µM (inactive). Also, the GI50 with SN12C was > 100 µM (inactive); with SNB-75 it was 27 µM (inactive); in the test on ACHN it was 23.1 µM (inactive); in the test with NCI-H23, 27.9 µM (inactive); in the test on UO-31, 33.9 µM (inactive); with SR, > 100 µM (inactive).

As to `CCCCC1(NN=C2CCCCC2)C(=O)N(c2ccccc2)N(c2ccccc2)C1=O`, the GI50 in the test on HL-60 is 18.1 µM (inactive); in the test on UACC-257, > 100 µM (inactive); with OVCAR-4 it was > 100 µM (inactive); in the test with MDA-MB-231, > 100 µM (inactive); in the test with RXF 393 it was > 100 µM (inactive); in the test with T47D, > 100 µM (inactive). Moreover, the GI50 with SF-268, in the test on SF-295, in the test on HOP-62, in the test on MDA-MB-435, in the test with U-251 and in the test with MDA-N was > 100 µM (inactive) each time. For the same molecule, the GI50 in the test with SN12C is > 100 µM (inactive); with SNB-75, > 100 µM (inactive); in the test with ACHN, > 100 µM (inactive); with NCI-H23, > 100 µM (inactive); in the test on UO-31, > 100 µM (inactive); in the test on SR, 17.3 µM (inactive).

For `CC1=C/C(=N\NS(=O)(=O)c2ccc([N+](=O)[O-])cc2)CC(C)(C)C1`, the GI50 in the test on HL-60 was > 100 µM (inactive); in the test with UACC-257, 80.5 µM (inactive); with A498, > 100 µM (inactive); with MDA-MB-231 it was > 100 µM (inactive); in the test on RXF 393, > 100 µM (inactive); in the test with T47D, > 100 µM (inactive). Also, the GI50 was 83.6 µM (inactive) in the test with SF-268; > 100 µM (inactive) in the test with SF-295; > 100 µM (inactive) in the test on HOP-62; > 100 µM (inactive) in the test with MDA-MB-435; 97.1 µM (inactive) with U-251; > 100 µM (inactive) in the test with MDA-N. Besides, the GI50 is 73.5 µM (inactive) with SN12C; 10.4 µM (inactive) with HOP-92; 54.6 µM (inactive) in the test on ACHN; 92.9 µM (inactive) in the test on NCI-H23; 80.7 µM (inactive) in the test with UO-31; 79.6 µM (inactive) with SR.
